# Entries after “also recorded” stand apart in the source; their conditions may differ. Non-standard residues stand in square brackets, D forms with d. Residues, ends and D or L forms follow the SMILES beside them. *: point of attachment. NBD = O=[N+]([O-])c1ccc(*)c2nonc12; Nle = CCCC[C@H](N)C(=O)O; Ahx = NCCCCCC(=O)O
# How the values were obtained:
# [1] = system: methicillin-sensitive Staphylococcus aureus; experiment: Confocal labelling of MSSA with quantified fluorescence; format: cell-based
# Experimental: Fig. 6 Confocal Images of compounds UBI-3 to 9 with quantified fluorescence. Panels show methicillin-sensitive Staphylococcus aureus incubated with UBI-3 to 9 (all 10 μM) with quantification of bacterial fluorescence normalized to UBI-3 (bars represent mean (±SEM), n ≥ 3, ns = not significant, *** = p < 0.001, * = p < 0.05, scale bar = 10 μm).
# Fig. 8 Confocal images and quantification of cyclic variants when compared to UBI-3. Panels show methicillin-sensitive Staphylococcus aureus incubated with cyclic UBI compounds (all 10 μM) with quantification of bacterial fluorescence normalized to UBI-3 (bars represent mean (±SEM), n ≥ 3, ns = not significant, ** = p < 0.01, scale bar = 10 μm).
# Bacterial Culture and Labelling: Bacteria used were K. pneumoniae (ATCC BAA1706) ATCC, E. coli (ATCC 25922) ATCC, A. baumannii (J3433) Clinical Isolate, P. aeruginosa (J3284) Clinical Isolate, Methicillin Resistant S. aureus (MRSA) (ATCC25923) ATCC and Methicillin Sensitive S. aureus (MSSA) (ATCC 252) ATCC. All bacteria were grown on Lysogeny broth (LB) agar and from a single bacterial colony placed into 10ml of LB and incubated at 37°C for 16 hours in an orbital shaker.
# Cultures were centrifuged at 4000rpm for 5 minutes and the pellet resuspended in 1ml phosphate buffered saline (PBS, Life Technologies). Following three further washes in PBS the cultures were reconstituted to 1 OD595 nm. Bacteria were counterstained with 5µM Syto 82 orange fluorescent nucleic acid stain (Invitrogen, CA, USA) in a shaking heat block at 37 °C for 20 minutes. For FCFM bacteria were stained with 1µM Calcein AM (Sigma, MO, USA) for 30 minutes at 37 °C. Counterstained bacteria were washed in PBS to remove excess dye. […]
# Confocal Analysis and Fluorescence Quantification: 8-Well Lab-Tek II Confocal Chambers (VWR, PA, USA) were coated in fibronectin (for neutrophil experiments) or poly-d-lysine (for bacteria) at 37 °C for 20 minutes, then washed in PBS prior to bacterial innoculation. For co-culture assays, neutrophils were seeded on fibronectin coated wells at 1 x 10^5 neutrophils per well for 20 minutes and non-adherent neutrophils aspirated. Bacteria were added to each chamber to a final concentration of 0.5 OD595 nm with the desired final concentration of Smartprobe. A laser-scanning confocal imaging system (LSM510; Carl Zeiss, Jena, Germany), incorporating an upright Axioskop FS2 microscope (63× objective) was used for image acquisition and processing. Exposure to 488 nm light was limited to 5% of the maximum laser power in order to minimize toxicity. ‘Green’ fluorescence (for FAM and NBD) was excited with a dedicated 488 nm line and emitted light detected with meta detector (500-530 nM).
# Syto nuclear and dyes were excited with a dedicated 543 nm line, and emitted light detected with meta detector (570-610 nM). Fields of view were chosen based on the counterstain and at least three fields of view were recorded for each condition. For affinity assays, following initial imaging, the fluid was aspirated and two gentle washes with PBS were performed. The chamber was re-imaged on confocal.
# Analysis was with ImageJ (version 1.46r, National Institutes of Health, USA); the Syto channel was automatically thresholded (MaxEntropy, with a set threshold 0-47) and an ROI generated from this. The […]
# (§1) mean fluorescence intensity on the probe channel within this ROI was quantified. Data presented represents the mean of three experiments, from each of which three separate fields of view were assessed. All experiments were performed at least three times unless otherwise stated and results expressed as mean ± SEM. Data was analysed by unpaired t-test and significance was determined as p<0.05 (GraphPad Prism version 5.01 for Windows, GraphPad Software, San Diego California USA).
# Ex vivo Human Lung and FCFM Procedure: Human lung samples were obtained from patients undergoing surgical resection for lung carcinoma. All images were obtained on sections of normal lung […]
# [2] = system: bacteria in ex vivo human lung tissue; experiment: Fibered confocal fluorescence microscopy (FCFM) of labelled bacteria on ex vivo human lung tissue; conditions: 10 μM, bacteria pre-labelled, 488 nm FCFM, n = 3
# Experimental: Since NBD is also excited at 488 nm, the utility and detection of the Smartprobes with FCFM was next evaluated. […] These were then delivered onto ex vivo human lung tissue fragments.
# Fig. 10 UBI-10 can be used to image bacteria in ex vivo human lung tissue by fibered confocal fluorescence microscopy (FCFM). FCFM imaging of bacteria in suspension (upper panels) or when co-incubated with ex vivo human lung tissue (lower panels). […] All compounds at 10 μM, n = 3. […]
# as §1
# Ex vivo Human Lung and FCFM Procedure: Human lung samples were obtained from patients undergoing surgical resection for lung carcinoma. All images were obtained on sections of normal lung away from the cancerous growth. Informed consent was obtained and the study was approved by the Regional Ethics Committee. Samples were taken fresh from the operating theatre, dissected into 4mm sections and placed in wells of 96 well plate. […]
# [3] = 0.5 μM to 50 μM, methicillin sensitive S. aureus
SMILES,"concentration dependence of bacterial labelling [1, 3]",detection of labelled bacteria by FCFM on ex vivo human lung tissue [2],"relative fluorescence of labelled bacteria compared with the other compounds [1, 3]","bacterial labelling (fluorescence compared with UBI-3) ([1]; MSSA, 10 μM, fluorescence normalized to UBI-3, mean ± SEM, n ≥ 3)"
CCCC[C@H](NC(=O)[C@H](CCCNC(=N)N)NC(=O)[C@H](CCCNC(=N)N)NC(=O)[C@H](CCCCN)NC(=O)[C@H](C)NC(=O)[C@H](CCCNC(=N)N)NC(=O)CNC(=O)[C@@H](NC(=O)CCCCCNc1ccc([N+](=O)[O-])c2nonc12)[C@@H](C)O)C(=O)N[C@@H](CCC(N)=O)C(=O)N[C@@H](Cc1ccc(O)cc1)C(=O)N[C@@H](CC(N)=O)C(=O)N[C@@H](CCCNC(=N)N)C(=O)N[C@@H](CCCNC(=N)N)C(N)=O [UBI-3] ({NBD-Ahx}-TGRAKRR[Nle]QYNRR-NH2),concentration dependent manner; also recorded: concentration dependent increase in bacterial fluorescence,immediately lost their fluorescent signal; also recorded: can image bacteria in suspension but not in the presence of ex vivo human lung,–,–
CCCC[C@@H]1NC(=O)[C@H](CCCNC(=N)N)NC(=O)[C@H](CCCNC(=N)N)NC(=O)[C@H](CCCCN)NC(=O)[C@H](C)NC(=O)[C@H](CCCNC(=N)N)NC(=O)CNC(=O)[C@H]([C@@H](C)O)NC(=O)[C@@H](NC(=O)CCCCCNc2ccc([N+](=O)[O-])c3nonc23)CCCCNC(=O)CNC(=O)[C@H](CCCNC(=N)N)NC(=O)[C@H](CCCNC(=N)N)NC(=O)[C@H](CC(N)=O)NC(=O)[C@H](Cc2ccc(O)cc2)NC(=O)[C@H](CCC(N)=O)NC1=O [UBI-10],concentration dependent manner; also recorded: concentration dependent increase in bacterial fluorescence,readily identified above elastin autofluorescence; also recorded: can image bacteria by FCFM in the presence of ex vivo human lung,higher than UBI-3 or UBI-5 labelled bacteria; also recorded: higher fluorescence (per molar equivalents) at all concentrations tested,significantly higher signal; also recorded: improved bacterial labelling
